Reference: ChEMBL document CHEMBL5579901, “Discovery of Novel [1,2,4]Triazolo[1,5-a]pyrimidine Derivatives as Novel Potent S-Phase Kinase-Associated Protein 2 (SKP2) Inhibitors for the Treatment of Cancer” (J Med Chem, 2024)

Key:
[1] = target: T1, Cyclin-dependent kinases regulatory subunit 1/S-phase kinase-associated protein 2 (Homo sapiens) (UniProt P61024+Q13309); assay: Inhibition of GST-tagged SKP2 (unknown origin) binding to His6-tagged CKS1 (unknown origin) at 50 uM preincubated with SKP2 for 10 mins followed by CKS1 addition for 20 mins and measured after by HTRF method relative to control; assay type: protein assay; details: time 30.0 min
[2] = target: T2, Cyclin-dependent kinases regulatory subunit 1/S-phase kinase-associated protein 2 (Homo sapiens, UniProt Q13309); assay: Inhibition of GST-tagged SKP2 (unknown origin) binding to His6-tagged CKS1 (unknown origin) preincubated with SKP2 for 10 mins followed by CKS1 addition for 20 mins and measured after by HTRF method; assay type: protein assay
MGC-803 = assay: Inhibition of cell proliferation in human MGC-803 cells incubated for 72 hrs by MTT assay; assay type: functional, cell-based; details: MGC-803, 72 h
PC-3 = assay: Inhibition of cell proliferation in human PC-3 cells incubated for 72 hrs by MTT assay; assay type: functional, cell-based; details: PC-3, 72 h
[3] = target: T2, Cyclin-dependent kinases regulatory subunit 1/S-phase kinase-associated protein 2; assay: Inhibition of GST-tagged SKP2 (unknown origin) binding to His6-tagged CKS1 (unknown origin) incubated for 1 hr by AlphaScreen assay; assay type: protein assay
[4] = target: T1, Cyclin-dependent kinases regulatory subunit 1/S-phase kinase-associated protein 2 (Homo sapiens); assay: Inhibition of GST-tagged SKP2 (unknown origin) to His6-tagged CKS1 (unknown origin) protein protein interaction at 50 umol/L by HTRF method relative to control; assay type: protein assay; details: dose 50.0 µmol/L
A549 = assay: Antiproliferative activity against human A549 cells incubated for 48 hrs by MTT assay; assay type: functional, cell-based; details: A549, 48 h

T2 sequence (P61024 whole entry): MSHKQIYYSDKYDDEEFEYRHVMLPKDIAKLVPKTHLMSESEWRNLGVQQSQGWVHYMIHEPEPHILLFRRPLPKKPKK
T2 sequence (Q13309 whole entry): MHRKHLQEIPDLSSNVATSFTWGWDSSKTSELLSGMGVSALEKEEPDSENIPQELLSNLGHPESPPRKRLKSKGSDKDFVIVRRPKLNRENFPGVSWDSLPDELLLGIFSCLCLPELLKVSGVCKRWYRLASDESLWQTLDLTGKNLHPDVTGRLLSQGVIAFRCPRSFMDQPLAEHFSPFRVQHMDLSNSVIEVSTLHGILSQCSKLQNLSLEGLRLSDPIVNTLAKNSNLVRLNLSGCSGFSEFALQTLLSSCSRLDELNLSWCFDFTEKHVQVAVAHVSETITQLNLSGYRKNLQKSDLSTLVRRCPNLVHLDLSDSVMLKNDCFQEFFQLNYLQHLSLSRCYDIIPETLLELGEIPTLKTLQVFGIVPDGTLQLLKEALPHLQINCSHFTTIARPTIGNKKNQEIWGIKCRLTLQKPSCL
T1 sequence (P61024 2-79 limits assumed): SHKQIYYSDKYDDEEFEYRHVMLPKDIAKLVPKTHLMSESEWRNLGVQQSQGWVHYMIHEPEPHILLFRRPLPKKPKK
T1 sequence (Q13309 whole entry partner): as the sequence (Q13309 whole entry) above

For `COc1cc(OC)c(-c2cc(C)nc3nc(SCc4ccccc4Br)nn23)c(OC)c1`, the inhibition [1] was 43% and the IC50 [2] was 66.7 µM.
`O=c1[nH]cc(F)c(=O)[nH]1` [FLUOROURACIL] showed an IC50 (MGC-803) of 44.1 µM and an IC50 (PC-3) of 10.2 µM.
Molecule `COc1cc(OC)c(-c2cc(C)nc3nc(SCc4ccc(F)cc4)nn23)c(OC)c1` has an inhibition [1] of 24% and an IC50 [2] of 98.1 µM.
`CCSc1nc2nc(C)cc(-c3c(OC)cc(OC)cc3OC)n2n1` was tested, and the inhibition [1] was 3.73% and the IC50 [2] was > 100 µM.
For `COc1cc(OC)c(-c2cc(C)nc3nc(SCc4cccc(Br)c4)nn23)c(OC)c1`, the inhibition [1] was 42.5% and the IC50 [2] was 61 µM.
`COc1cc(-c2cc(C)nc3nc(SCc4ccc(Br)cc4)nn23)cc(OC)c1OC` was tested, and the inhibition [1] was 58.8% and the IC50 [2] was 30.9 µM.
Work on `O=C(OCC12CC3CC(CC(C3)C1)C2)c1ccc(NCc2cc(O)ccc2O)cc1` yielded an IC50 [3] of 36.6 µM.
In the case of `COC(=O)c1cccc(Nc2cc(C)nc3nc(SCc4ccc(Br)cc4)nn23)c1`, the inhibition [1] is reported as 12.4% and the IC50 [2] is reported as > 100 µM.
In the case of `COc1ccc(N2C(=O)c3ccccc3C2Cc2cc(-c3c(OC)cc(O)cc3OC)n3ncnc3n2)cc1` (configuration not stated), the inhibition [4] is reported as 54%.
With `Cc1cc(-c2ccccc2)n2nc(SCc3ccc(Br)cc3)nc2n1` the inhibition [1] was 55.3% and the IC50 [2] was 45.1 µM.
`COc1cc(OC)c(-c2cc(C)nc3nc(SCc4ccncc4)nn23)c(OC)c1` was tested, and the inhibition [1] was 10% and the IC50 [2] was > 100 µM.
In the case of `Cc1cc(-c2ccc(C(=O)O)cc2)n2nc(SCc3ccc(Br)cc3)nc2n1`, the inhibition [1] is reported as 20.1% and the IC50 [2] is reported as > 100 µM.
With `COc1cc(C2=NC3=NC(C)=C(C(C)=O)C(c4ccc([N+](=O)[O-])cc4)N3N2)cc(OC)c1OC` (configuration not stated) the IC50 (A549) was 1.02 µM.
With `COc1cc(OC)c(-c2cc(C)nc3nc(SCc4cccc5ccccc45)nn23)c(OC)c1` the inhibition [1] was 17.4% and the IC50 [2] was > 100 µM.
For `Cc1cc(-c2ccc(C(=O)N3CCN(C)CC3)cc2)n2nc(SCc3ccc(Br)cc3)nc2n1`, the inhibition [1] was 14.6% and the IC50 [2] was > 100 µM.
In the case of `Cc1cc(Br)n2nc(SCc3ccc(Br)cc3)nc2n1`, the inhibition [1] is reported as 47% and the IC50 [2] is reported as 68 µM.
In the case of `COc1cc(OC)c(-c2cc(C)nc3nc(SCc4cccc(Cl)c4)nn23)c(OC)c1`, the inhibition [1] is reported as 15.9% and the IC50 [2] is reported as > 100 µM.
In the case of `COc1cc(OC)c(-c2cc(C)nc3nc(SCCCc4ccccc4)nn23)c(OC)c1`, the inhibition [1] is reported as 20.3% and the IC50 [2] is reported as > 100 µM.
In the case of `COC(=O)c1cccc(CSc2nc3nc(C)cc(-c4c(OC)cc(OC)cc4OC)n3n2)c1`, the inhibition [1] is reported as 10.2% and the IC50 [2] is reported as > 100 µM.
`Cc1cc(-c2ccc3c(c2)OCCO3)n2nc(SCc3ccc(Br)cc3)nc2n1` was tested, and the inhibition [1] was 37.4% and the IC50 [2] was 70.9 µM.
Molecule `COc1cc(OC)c(-c2cc(C)nc3nc(SCc4ccccc4)nn23)c(OC)c1` has an inhibition [1] of 60% and an IC50 [2] of 14.7 µM.
For `COc1ccc(-c2cc(C)nc3nc(SCc4ccc(Br)cc4)nn23)cc1`, the inhibition [1] was 34.6% and the IC50 [2] was 72.4 µM.
With `COc1cc(OC)c(-c2cc(C)nc3nc(SCc4cnc(Cl)s4)nn23)c(OC)c1` the inhibition [1] was 31.5% and the IC50 [2] was 72.5 µM.
`COc1cc(OC)c(-c2cc(C)nc3nc(SCC4CCCCC4)nn23)c(OC)c1` showed an inhibition [1] of 60% and an IC50 [2] of 17.4 µM.
In the case of `Cc1cc(-c2cccc(C(=O)O)c2)n2nc(SCc3ccc(Br)cc3)nc2n1`, the inhibition [1] is reported as 17.9% and the IC50 [2] is reported as > 100 µM.
`COc1ccccc1-c1cc(C)nc2nc(SCc3ccc(Br)cc3)nn12` was tested, and the inhibition [1] was 27.2% and the IC50 [2] was > 100 µM.
Molecule `COC(=O)c1ccc(CCc2cc(O)ccc2O)cc1` has an IC50 [3] of 36.6 µM.
In the case of `Cc1cc(-c2cccc(C(=O)N3CCN(C)CC3)c2)n2nc(SCc3ccc(Br)cc3)nc2n1`, the inhibition [1] is reported as 23.4% and the IC50 [2] is reported as > 100 µM.
Work on `COc1cc(OC)c(-c2cc(C)nc3nc(SCc4ccc(Br)cc4)nn23)c(OC)c1` yielded an inhibition [1] of 69.6% and an IC50 [2] of 11.9 µM.
With `C#CCSc1nc2nc(C)cc(-c3c(OC)cc(OC)cc3OC)n2n1` the inhibition [1] was 5.84% and the IC50 [2] was > 100 µM.
`COc1cc(OC)c(-c2cc(C)nc3nc(SCC4CCCC4)nn23)c(OC)c1` gave an inhibition [1] of 28% and an IC50 [2] of 62.3 µM.
With `Cc1cc(Cl)n2nc(SCc3ccc(Br)cc3)nc2n1` the inhibition [1] was 22% and the IC50 [2] was 75.1 µM.
With `COc1cc(OC)c(-c2cc(C)nc3nc(SCc4cccc(Cl)c4Cl)nn23)c(OC)c1` the inhibition [1] was 7.29% and the IC50 [2] was > 100 µM.
With `COc1cc(OC)c(-c2cc(C)nc3nc(SCC4CCOCC4)nn23)c(OC)c1` the inhibition [1] was 16.3% and the IC50 [2] was > 50 µM.
With `COc1cc(OC)c(-c2cc(C)nc3nc(SCc4ccc(Cl)cc4)nn23)c(OC)c1` the inhibition [1] was 9.13% and the IC50 [2] was > 100 µM.
`CCCSc1nc2nc(C)cc(-c3c(OC)cc(OC)cc3OC)n2n1` was tested, and the inhibition [1] was 24.5% and the IC50 [2] was > 100 µM.
With `COc1cc(OC)c(-c2cc(C)nc3nc(SCc4ccc(I)cc4)nn23)c(OC)c1` the inhibition [1] was 41.7%.
Work on `COc1cccc(OC)c1-c1cc(C)nc2nc(SCc3ccc(Br)cc3)nn12` yielded an inhibition [1] of 37% and an IC50 [2] of 75.6 µM.
For `COc1ccc(CSc2nc3nc(C)cc(-c4c(OC)cc(OC)cc4OC)n3n2)cc1`, the inhibition [1] was 11.5% and the IC50 [2] was > 100 µM.
For `COc1cc(OC)c(-c2cc(C)nc3nc(SCc4ccc(C)cc4)nn23)c(OC)c1`, the inhibition [1] was 11.5% and the IC50 [2] was > 100 µM.
Molecule `COc1cccc(-c2cc(C)nc3nc(SCc4ccc(Br)cc4)nn23)c1` has an inhibition [1] of 58.7% and an IC50 [2] of 40.3 µM.
In the case of `COC(=O)c1ccc(Nc2cc(C)nc3nc(SCc4ccc(Br)cc4)nn23)cc1`, the inhibition [1] is reported as 12.4% and the IC50 [2] is reported as > 100 µM.
`Cc1cc(-c2ccc(-c3ccccc3)cc2)n2nc(SCc3ccc(Br)cc3)nc2n1` gave an inhibition [1] of 66.2% and an IC50 [2] of 10.5 µM.
`COc1cc(OC)c(-c2cc(C)nc3nc(SCc4ccc(C(F)(F)F)cc4)nn23)c(OC)c1` was tested, and the inhibition [1] was 27.1% and the IC50 [2] was 93.1 µM.
`COc1cc(OC)c(-c2cc(C)nc3nc(SCC4CCC4)nn23)c(OC)c1` showed an inhibition [1] of 20.2% and an IC50 [2] of 82.5 µM.
In the case of `C=CCSc1nc2nc(C)cc(-c3c(OC)cc(OC)cc3OC)n2n1`, the inhibition [1] is reported as 2.51% and the IC50 [2] is reported as > 100 µM.
